Common to all, as to format: in vivo
Assay [1] relates to Alopecurus myosuroides (ALOMY). As to the kind of experiment: Example A pre-emergence herbicidal glasshouse test. To be noted: 312 h, Rate 250 g/ha, evaluated after 13 days, 100=total damage to plant, 0=no damage to plant. In a few lines: (§1)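 Pots, standard soil; spray at day 1 (pre) or day 8 (post); a.i. formulated in acetone/water 50:50 + 0.5% Tween 20; 24/16 °C, 14 h light, 65% RH, watered twice daily; visual rating at 13 d (0 = no damage, 100 = total damage).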

The test system of assay [2] is Amaranthus retroflexus (AMARE). As to the kind of experiment: Example A pre-emergence herbicidal glasshouse test. The note with it: 312 h, Rate 250 g/ha, evaluated after 13 days, 100=total damage to plant, 0=no damage to plant. In outline: as §1
For assay [3], the system named is Avena fatua (AVEFA). As to the kind of experiment: Example A pre-emergence herbicidal glasshouse test. To be noted: 312 h, Rate 250 g/ha, evaluated after 13 days, 100=total damage to plant, 0=no damage to plant. In a few lines: as §1
Assay [4] relates to Echinochloa crus-galli (ECHCG). The assay can be described thus: Example A pre-emergence herbicidal glasshouse test. To be noted: 312 h, Rate 250 g/ha, evaluated after 13 days, 100=total damage to plant, 0=no damage to plant. In a few lines:
as §1

Assay [5] relates to Setaria faberi (SETFA). As to the kind of experiment: Example A pre-emergence herbicidal glasshouse test. To be noted: 312 h, Rate 250 g/ha, evaluated after 13 days, 100=total damage to plant, 0=no damage to plant. In a few lines: as §1
Assay [6] concerns Solanum nigrum (SOLNI). The assay can be described thus: Example A pre-emergence herbicidal glasshouse test. To be noted: Rate 250 g/ha, evaluated after 13 days, 100=total damage to plant, 0=no damage to plant. In a few lines: as §1
For assay [7], the system named is Alopecurus myosuroides (ALOMY). The assay can be described thus: Example A post-emergence herbicidal glasshouse test. The note with it: 312 h, evaluated after 13 days, 100=total damage to plant, 0=no damage. In outline:
as §1

The subject of assay [8] is Amaranthus retroflexus (AMARE). Described as above. To be noted: 312 h, evaluated after 13 days, 100=total damage to plant, 0=no damage. In outline:
as §1

For assay [9], the system named is Avena fatua (AVEFA). The description is as above. To be noted: 312 h, evaluated after 13 days, 100=total damage to plant, 0=no damage. In a few lines: as §1
Assay [10] has as its system Echinochloa crus-galli (ECHCG). The description is as above. To be noted: 312 h, evaluated after 13 days, 100=total damage to plant, 0=no damage. In a few lines:
as §1

The test system of assay [11] is Setaria faberi (SETFA). Described as above. To be noted: 312 h, evaluated after 13 days, 100=total damage to plant, 0=no damage. In outline:
as §1

Assay [12] relates to Solanum nigrum (SOLNI). The assay is described as above. To be noted: 250 g/ha, evaluated after 13 days, 100=total damage to plant, 0=no damage. In a few lines:
as §1

5 molecules from patent US8828908B2, “Herbicidally active bicyclic 1,3-dione compounds” (Syngenta Limited, priority 2007, dated 2014) can be followed below.

The term pest or weed control denotes the degree to which the test organism was suppressed or injured, in per cent. Read a low pest or weed control as a weak effect.

Regarding `Cc1ccc(-c2cccc(F)c2)cc1C1=C(O)[C@H]2CC[C@H](C2)C1=O` (single isomer, unassigned) [Compound T13], the pest or weed control at 250 g/ha in [1], in assay [2], in assay [3], in assay [4], in [5] and in assay [7] was 0% in each case. The pest or weed control at 250 g/ha in assay [8] turned out to be 0%; in assay [9], 0%; in assay [10], 10%; in assay [11] it was 0%. Also, the “SOLNI damage to plant” value in assay [6] and in [12] was 0 throughout.
`CCc1ccc(-c2ccc(C)c(C3=C(O)[C@H]4CC[C@H](C4)C3=O)c2)cc1` (single isomer, unassigned) [Compound T14]: the pest or weed control at 250 g/ha in [1], in [2], in [3], in assay [4], in assay [5] and in assay [7] was 0% throughout. The pest or weed control at 250 g/ha in [8] turned out to be 0%; in [9] it was 0%; in assay [10] it was 30%; in assay [11], 70%. In addition, the “SOLNI damage to plant” value in assay [6] and in [12] was 0 throughout.
Turning to `Cc1cc(C)c(-c2ccc(C)c(C3=C(O)[C@H]4CC[C@H](C4)C3=O)c2)c(C)c1` (single isomer, unassigned) [Compound T15], the pest or weed control at 250 g/ha in assay [1], in [2], in assay [3], in [5], in assay [8] and in assay [11] was 0% throughout. The “SOLNI damage to plant” value in [12] is given as 0.
Turning to `Cc1ccc(-c2ccccc2F)cc1C1=C(O)[C@H]2CC[C@H](C2)C1=O` (single isomer, unassigned) [Compound T16], the pest or weed control at 250 g/ha in assay [1], in assay [2], in [3], in assay [4], in assay [5] and in [7] was 0% throughout. In addition, the pest or weed control at 250 g/ha in [8], in [9], in [10] and in assay [11] was 0% throughout. Also, the “SOLNI damage to plant” value in [6] and in assay [12] was 0 in each case.
In the case of `Cc1ccc(-c2ccc(F)cc2)cc1C1=C(O)[C@H]2CC[C@H](C2)C1=O` (single isomer, unassigned) [Compound T17], the pest or weed control at 250 g/ha in assay [1] is 0%; in assay [2], 0%; in [3] it was 10%; in assay [4], 50%; in assay [5] it was 80%; in assay [7] it was 10%. Besides, the pest or weed control at 250 g/ha in assay [8] stood at 0%; in assay [9] it was 0%; in assay [10], 70%; in [11] it was 80%. Also, the “SOLNI damage to plant” value in assay [6] and in [12] was 0 in each case.
